Experiments:
Type in all cases: binding
[1] = target: Hsp90α-NT (human Hsp90α immobilized via the N-terminal) (Homo sapiens, UniProt P07900); experiment: Frontal chromatography on Hsp90α-NT column; details: for Bmax: Hsp90α-NT column, frontal chromatography, number of active binding sites, ±SE
[2] = target: Hsp90α-CT (human Hsp90α immobilized via the C-terminal) (Homo sapiens, UniProt P07900); experiment: Frontal chromatography on Hsp90α-CT column; details: for Bmax: Hsp90α-CT column, frontal chromatography, number of active binding sites, ±SE
[3] = target: Hsp90α-NT (middle domain of Hsp90α) (Homo sapiens, UniProt P07900); experiment: Competition studies of eNOS and CEP on Hsp90α-NT column; details: eNOS added to the mobile phase

retention factors of CEP with an increase in eNOS concentrations [3]	Compound	Bmax [1] [nmol]	Bmax [2] [nmol]	Kd [1] [µM]	Kd [2] [µM]
	isotetrandrine	54.7 ± 6.3	250 ± 29.7		
decreased	COc1ccc2cc1Oc1ccc(cc1)C[C@H]1c3c(cc4c(c3Oc3cc5c(cc3OC)CCN(C)[C@@H]5C2)OCO4)CCN1C [Cepharanthine, cepharanthine]	19.8 ± 3.1	56.9 ± 7.2	5.3 ± 1.3	6.3 ± 1.7
	COc1cc2c3c(c1OC)Oc1ccc(cc1)C[C@@H]1c4c(cc(OC)c(OC)c4Oc4ccc(cc4)C[C@H]3N(C)CC2)CCN1C [Cycleanine, cycleanine]	37.3 ± 2.5	578 ± 110	159 ± 23.2	143 ± 36.6
	berbamine	36.5 ± 3.3	89.7 ± 17.1		
